Results: US9265771B2, “Method for treating Lyme disease” (Zoetis Services LLC, priority 2012, dated 2016)
Where “and” joins values, the source holds several entries; their conditions need not be identical. Identical values can stand only once.

Assays:
B. burgdorferi [1] = assay: Study A: SNAP-4Dx ELISA in tick-infected dogs; type: in vivo, beagle dogs; conditions: N=8
Excerpt: Three outer surface proteins (Osp) on B. burgdorferi are important for diagnosis and prevention, and are expressed by the organism in response to its local environment. […] OspF is another surface protein that is generally observed in late-stage disease. The C in […] refers to a 25-amino acid, C6 peptide in the sixth invariable region of an outer membrane lipoprotein (VIsE). Antibody against C6 is highly accurate as a serologic diagnosis of Lyme disease independent of a subject's (e.g., canine) vaccination status. Further, the generation of C6 antibodies implies an active infection with viable spirochetes. Serological methods for detecting B. burgdorfer/Lyme disease were conducted using the IDEXX qualitative SNAP-4Dx ELISA and the Quantitative C6 (Quant C6 or QC6) diagnostic kits, which are enzyme linked immunosorbent assays against the previously described 25-amino-acid C6 peptide. […]
Twenty-three adult female beagle dogs were used in this study; all were sero-negative for Borrelia, not vaccinated with any Borrelia spp vaccines, and acclimated at the study facility for seven days prior to any study activities. […] Dogs were monitored 21-days post-challenge for pyrexia, and the entire post-challenge period for clinical signs of Lyme disease (lameness, ataxia, anorexia, lymphadenopathy and depression). […]

[2] = tested on: B. burgdorferi sensu stricto (B31 strain); assay: In-vitro assessment of cefovecin efficacy (live spirochetes in culture by light microscopy); type: cell-based, Borrelia burgdorferi; conditions: for Number of B. burgdorferi spirochetes per field-of-view (geometric mean per ten field of views): cultures A, C
Protocol: B. burgdorferi sensu stricto (B31 strain) was cultured. The experimental (triplicate) groups included a control, 0.02 μg/mL cefovecin, and 2 μg/mL cefovecin. Cultures were viewed by light microscopy at 0, 6, 24, 30, 48, and 54 hours post inoculation to assess number of live spirochetes (Table 1).

[3] = canine; cited from earlier work
B. burgdorferi [4] = assay: Study B: SNAP-4Dx ELISA in tick-infected dogs; type: in vivo, beagle dogs; conditions: for SNAP-4Dx Positives, Number of Dogs: N = 8/group
Excerpt: Three outer surface proteins (Osp) on B. burgdorferi are important for diagnosis and prevention, and are expressed by the organism in response to its local environment. […] OspF is another surface protein that is generally observed in late-stage disease. The C in […] refers to a 25-amino acid, C6 peptide in the sixth invariable region of an outer membrane lipoprotein (VIsE). Antibody against C6 is highly accurate as a serologic diagnosis of Lyme disease independent of a subject's (e.g., canine) vaccination status. Further, the generation of C6 antibodies implies an active infection with viable spirochetes. Serological methods for detecting B. burgdorfer/Lyme disease were conducted using the IDEXX qualitative SNAP-4Dx ELISA and the Quantitative C6 (Quant C6 or QC6) diagnostic kits, which are enzyme linked immunosorbent assays against the previously described 25-amino-acid C6 peptide. QC6 ELISA data, units/mL, are useful for guidance in initiating and evaluating response to therapy (See Levy S A, O'Connor T P, Hanscom J L, Shields P, et al. Quantitative measurement of a C6 antibody following antibiotic treatment of Borrelia burgdorferi antibody-positive, nonclinical dogs. Clin Vacc Immunol 2008; 15(1):115-119 and Littman M P, Goldstein R E, Labato M A, et al. ACVIM Small Animal Concensus Statement on Lyme Disease in Dogs: Diagnosis, Treatment and Prevention. J Vet Intern Med 2006; 20: 422-434).
Thirty-two (18 male and 14 female) beagle dogs were sero-negative for Borrelia burgdorferi, not vaccinated with any Borrelia spp vaccines, and acclimated at the study facility for seven days. The study was conducted under National Research Council guidelines (1996). […] Field-caught Ixodes from the northeast USA were placed on the dogs without containment chambers for 10 days; after ticks fed to repletion, dogs were treated with two applications of an approved topical acaricide with a 30-day interval between applications.
Forty days post-challenge, and prior to antibiotic treatments, blood was collected from each dog as were two skin biopsy punch samples near tick attachment sites. Blood was collected approximately monthly post-treatment. Skin biopsies were taken near the tick attachment site on Days 48/49, 118, 146, 180, and 315. Serum antibodies to Borrelia were assayed using the IDEXX SNAP-4Dx and QC6 ELISA. In cooperation with Cornell University, serum samples were analyzed using fluorescent-bead-based multiplex assays detecting antibodies against B. burgdorferi outer surface proteins OspA, OspC, and OspF. Data were expressed as median fluorescent intensities (MFI), and shown to be specific and sensitive to provide interpretative guidelines regarding infection. The skin biopsies were collected for a polymerase chain reaction (PCR; FlaB) assay and cultured for spirochete detection. At the end of the study, blood and skin biopsies were collected and synovial tissue from the joints were harvested at necropsy.
On Day 75 and Day 89 Convenia was administered to the eight dogs in T04 (8 mg/kg bodyweight; subcutaneous injection). The other treated groups received their respective regimens daily and orally for 30 days from Days 75 to 104. […] Dogs in T01 served as infected, untreated, controls. Inter-treatment comparisons to evaluate antibiotic efficacy included clinical signs, serology, culture results and pathology.

CO/N=C(\C(=O)N[C@@H]1C(=O)N2C(C(=O)[O-])=C([C@@H]3CCCO3)CS[C@H]12)c1csc(N)n1.[Na+] [Convenia, (6R,7R)-7-[[(2Z)-(2-amino-4-thiazolyl)(methoxyimino)acetyl]-amino]-8-oxo-3-[(2S)-tetrahydro-2-furanyl]-5-thia-1-azabicyclo[4.2.0]oct-2-ene-2-carboxylic acid, monosodium salt]
Dogs SNAP-4Dx positive for B. burgdorferi (B. burgdorferi [1]; prior to administration of Convenia on Day 83): 100% | Number of dogs remaining SNAP-4Dx positive (B. burgdorferi [1]; through the study (Day 166), 8 mg/kg sc Days 83 and 97): five to seven | Number of B. burgdorferi spirochetes per field-of-view (geometric mean per ten field of views) ([2]; 0.02 μg/mL, 0 hours): 0 | Number of B. burgdorferi spirochetes per field-of-view (geometric mean per ten field of views) ([2]; 0.02 μg/mL, 24 hours, listed as cefovecin, monosodium salt): 1.7 and 2.1 and 2.0 | Number of B. burgdorferi spirochetes per field-of-view (geometric mean per ten field of views) ([2]; 0.02 μg/mL, 48 hours, listed as cefovecin, monosodium salt): 7.2 and 4.1 and 5.9 | Number of B. burgdorferi spirochetes per field-of-view (geometric mean per ten field of views) ([2]; 0.02 μg/mL, 54 hours, listed as cefovecin, monosodium salt): 8.1 and 10.2 and 9.0 | Retardation of growth of B. burgdorferi ([2]; 0.02 μg/mL, in 54 hours): at least 30% | Time after which B. burgdorferi is eliminated in culture ([2]; 2 μg/mL): about 24 hours | Number of B. burgdorferi spirochetes per field-of-view (geometric mean per ten field of views) ([2]; 2 μg/mL, 0 hours): 0 | Number of B. burgdorferi spirochetes per field-of-view (geometric mean per ten field of views) ([2]; 2 μg/mL, 30 hours): 0 | Number of B. burgdorferi spirochetes per field-of-view (geometric mean per ten field of views) ([2]; 2 μg/mL, 48 hours): 0 | Number of B. burgdorferi spirochetes per field-of-view (geometric mean per ten field of views) ([2]; 2 μg/mL, 54 hours): 0 | Elimination half-life [3]: about 133 hours | SNAP-4Dx Positives, Number of Dogs (B. burgdorferi [4]; Day 48 (pre-treatment; antibiotics from Day 75)): 6 | SNAP-4Dx Positives, Number of Dogs (B. burgdorferi [4]; Day 111): 5 | SNAP-4Dx Positives, Number of Dogs (B. burgdorferi [4]; Day 145): 1 | SNAP-4Dx Positives, Number of Dogs (B. burgdorferi [4]; Day 179): 2 | SNAP-4Dx Positives, Number of Dogs (B. burgdorferi [4]; Day 221): 0 | SNAP-4Dx Positives, Number of Dogs (B. burgdorferi [4]; Day 251): 0 | SNAP-4Dx Positives, Number of Dogs (B. burgdorferi [4]; Day 281): 0 | SNAP-4Dx Positives, Number of Dogs (B. burgdorferi [4]; Day 315): 0 | SNAP-4Dx Positives, Number of Dogs (B. burgdorferi [4]; Day −15 (pre-infection)): 0 | SNAP-4Dx positive dogs (B. burgdorferi [4]; rest of the study after Day 179): none positive
